The values below come from PMC4144908, “Structural Insights of the ssDNA Binding Site in the Multifunctional Endonuclease AtBFN2 from Arabidopsis thaliana” (PLoS ONE, 2014).

In assay [1] the target is T1, AtBFN2 (Arabidopsis thaliana, UniProt Q9C9G4).
T1 sequence (Q9C9G4 28-290): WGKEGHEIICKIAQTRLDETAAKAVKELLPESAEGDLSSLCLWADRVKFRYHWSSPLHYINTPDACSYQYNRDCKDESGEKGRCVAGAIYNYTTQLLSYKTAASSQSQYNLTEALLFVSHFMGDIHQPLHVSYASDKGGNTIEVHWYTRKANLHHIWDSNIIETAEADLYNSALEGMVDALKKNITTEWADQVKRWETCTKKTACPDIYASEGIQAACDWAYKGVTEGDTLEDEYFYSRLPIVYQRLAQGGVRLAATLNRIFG
Also on record: gene ENDO2. The note with it: active site, tri-zinc cluster; crystals grown with 0.2 M Na2HPO4, 0.1 M Hepes pH 7.5.

In assay [2] the target is T1, AtBFN2. Nature of the assay: acid-soluble ssDNA release, A260. It is filed as biochemical. Details: gene ENDO2; ENDO2 cDNA with C-terminal 6xHis tag, overexpressed in transgenic Arabidopsis seedlings; three Zn ions. The note with it: heat-denatured ssDNA substrate; 100 mM Tris pH 7, 37 °C, 10 min; 1 mM Na3VO4.

With `O=P(O)(O)O` [phosphate], the “X-ray crystal structure, 2.0 Å” value on AtBFN2 [1] is on record as “have a phosphate anion displacing all coordinating waters, except Wat3 (Fig. 2D)”.

As to `[O]=[V]([OH])([OH])[OH]` [vanadate], the % inhibition – broadly, the drop in the measured response relative to a control, in per cent – at 1 mM on AtBFN2 [2] is given as 80%.
